According to patent US10370359B2, “Process for the preparation of crystalline dexlansoprazole” (DIPHARMA FRANCIS S.r.l., priority 2017, dated 2019):
Read-outs that look alike come from different tables or passages of the source.

Legend:
[1] = format: physicochemical; conditions: for purity of the samples, 24 h: after 24 hours at 70° C. in an oven; for purity of the samples, 24 h / purity of the samples, 48 h / purity of the samples, 72 h / purity of the samples, 0 h: HPLC at 285 nm; for purity of the samples, 48 h: after 48 hours at 70° C. in an oven; for purity of the samples, 72 h: after 72 hours at 70° C. in an oven; for purity of the samples, 0 h: time 0, before heating at 70° C.
Protocol: The samples of crystalline anhydrous dexlansoprazole prepared according to the method of the present invention (new method) and those made according to the method of U.S. Pat. No. 8,314,241 (present Example 4) are heated in an oven at 70° C.
After 24, 48 and 72 hours, samples are taken and analyzed by HPLC at a wavelength of 285 nm.

[2] = Thermal stability of dexlansoprazole in solution (dispersion), HPLC; format: physicochemical; conditions: dispersion 14 hours at 45° C., distillation at 50° C. at reduced pressure, further 14 hours at 45° C.; not present at time 0
Protocol: In order to establish the thermal stability of dexlansoprazole the dispersion of dexlansoprazole was heated for 14 hours at 45° C., then a distillation at 50° C. at reduced pressure was performed and finally the dispersion was kept for further 14 hours at 45° C.
The color of the resulting dispersion turned into a slight yellow.

[3] = listed as crystalline anhydrous dexlansoprazole prepared with the procedure of the present

| SMILES | decrease of the concentration of crystalline anhydrous dexlansoprazole ([1]; 70° C. for 72 hours, Area % HPLC at 285 nm) | purity of the samples, 24 h [1] | purity of the samples, 48 h [1] | purity of the samples, 72 h [1] | purity of the samples, 72 h [1, 3] | purity of the samples, 0 h [1] | purity of the samples, 0 h [1, 3] | increase of the contents of all the impurities ([1]; after 24 hours at 70° C.) | increase of the contents of all the impurities ([1]; after 72 hours at 70° C.) | content of impurity of formula (I) formed [2] |
| --- | --- | --- | --- | --- | --- | --- | --- | --- | --- | --- |
| Cc1c(OCC(F)(F)F)ccnc1C[S@@+]([O-])c1nc2ccccc2[nH]1 [Method of the present invention] | less than 0.1% | 99.95% | 99.93% | 99.93% | 99.93% | 99.96% | 99.96% |  |  |  |
| Cc1c(OCC(F)(F)F)ccnc1C[S@@+]([O-])c1nc2ccccc2[nH]1 [U.S. Pat. No. 8,314,241] |  | 99.28% | 99.09% | 98.91% |  | 99.51% |  | more than 0.2% | 0.60% |  |
| Cc1c(OCC(F)(F)F)ccnc1C[S@@+]([O-])c1nc2ccccc2[nH]1 [dexlansoprazole] |  |  |  |  |  |  |  |  |  | 0.03% |
